Measurements from publication PMC5814162, “Anticoagulants inhibit proteolytic clearance of plasma amyloid beta” (Oncotarget, 2017).

Tests used:
[1] = tested on: plasma Aβ42 (FXII-FVII pathway); test: Plasma Aβ42 level in mice given synthetic Aβ42 after anticoagulant treatment (ELISA); format: in vivo; conditions: male C57BL/6 mice, anticoagulant once daily for 5 days (EP 0.1 and 0.5 mg/kg i.p.; DGT 22.5 and 45 mg/kg p.o.), Aβ42 40 μg/kg i.p. 1 h after final dose, blood 6 h later, vs vehicle, mean of n = 3, 'up to' over the two doses
Experimental: All experiments were approved by the Institutional Animal Care and Use Committee at the Roswell Park Cancer Institute under protocol 1022M. All mice were housed in individually ventilated pathogen-free cage systems equipped with HEPA filtered air supply and reverse osmosis purified water in a centralized vivarium facility. The facility is controlled with fully automated sensors for light (12-hour dark - 12-hour light cycle), temperature (70°F ± 2°F), humidity and airflow. All mice had free access to standard rodent diet (sterilizable Teklad #2018, with 6% fat and alfalfa free). C57BL/6NTac mice (male) were purchased from Taconic and used in two experiments. In the first experiment, mice at 8-9 weeks of age were treated with vehicle or an anticoagulant once daily for 5 days, and 1 h after the final treatment, the mice were treated with a single dose of Aβ42, followed by blood draw 6 h later. Blood was collected from the mice by cardiac puncture at the time of sacrifice by carbon dioxide and was collected into K3 EDTA-containing tubes (Multivette 600 from Sarstedt), from which plasma samples were prepared. […] Plasma concentrations of Aβ were determined by ELISA, which either detects both Aβ40 and Aβ42 [53] or specifically measures each peptide. […] Plasma concentration of FI was also measured by ELISA using a kit from GenWay Biotech. […]

FXII-FVII pathway [2] = test: Plasma coagulation factor activation in mice treated with EP and/or Aβ40 (Western blotting, FI by ELISA); format: in vivo; conditions: male C57BL/6 mice; EP 0.5 mg/kg i.p. once daily 5 days, then Aβ40 40 μg/kg i.p.; blood 6 h later
Experimental: All experiments were approved by the Institutional Animal Care and Use Committee at the Roswell Park Cancer Institute under protocol 1022M. All mice were housed in individually ventilated pathogen-free cage systems equipped with HEPA filtered air supply and reverse osmosis purified water in a centralized vivarium facility. The facility is controlled with fully automated sensors for light (12-hour dark – 12-hour light cycle), temperature (70°F ± 2°F), humidity and airflow. All mice had free access to standard rodent diet (sterilizable Teklad #2018, with 6% fat and alfalfa free). C57BL/6NTac mice (male) were purchased from Taconic and used in two experiments. […]
(§1) Plasma concentrations of Aβ were determined by ELISA, which either detects both Aβ40 and Aβ42 [53] or specifically measures each peptide. […] Plasma concentration of FI was also measured by ELISA using a kit from GenWay Biotech. […]
(§2) Each plasma sample (7.5 μl of plasma per sample) was mixed with 4x loading dye, heated at 95°C for 5 min, and resolved by SDS-PAGE. The separated proteins were transferred to polyvinylidene fluoride membrane, probed with specific antibodies, and detected using Luminata Classico or Luminata Cresendo (Millipore).

[3] = tested on: plasma Aβ40 / endogenous Aβ (FXII-FVII pathway); test: Plasma Aβ level in mice treated with EP and/or Aβ40 (ELISA); format: in vivo; conditions: male C57BL/6 mice, EP 0.5 mg/kg i.p. once daily 5 days, n = 3
Experimental: All experiments were approved by the Institutional Animal Care and Use Committee at the Roswell Park Cancer Institute under protocol 1022M. All mice were housed in individually ventilated pathogen-free cage systems equipped with HEPA filtered air supply and reverse osmosis purified water in a centralized vivarium facility. The facility is controlled with fully automated sensors for light (12-hour dark – 12-hour light cycle), temperature (70°F ± 2°F), humidity and airflow. All mice had free access to standard rodent diet (sterilizable Teklad #2018, with 6% fat and alfalfa free). C57BL/6NTac mice (male) were purchased from Taconic and used in two experiments. In the first experiment, mice at 8–9 weeks of age were treated with vehicle or an anticoagulant once daily for 5 days, and 1 h after the final treatment, the mice were treated with a single dose of Aβ42, followed by blood draw 6 h later. Blood was collected from the mice by cardiac puncture at the time of sacrifice by carbon dioxide and was collected into K3 EDTA-containing tubes (Multivette 600 from Sarstedt), from which plasma samples were prepared. […]
as §1

plasma Aβ42 = test: Plasma Aβ42 level in J20 mice and WT littermates, ELISA specific for Aβ42; format: in vivo; conditions: 3 months of age, EP 0.5 mg/kg i.p. once daily 5 days
Experimental: (§3) J20 mice were purchased from the Mutant Mouse Resource & Research Centers (MMRRC) via the Jackson Laboratory. Hemizygous male J20 mice in C57BL/6J background were bred with WT female mice (C57BL/6J, also from Jackson Laboratory). F1 hemizygous J20 mice were identified by PCR genotyping based on the Jackson Laboratory protocol (https://www/jax.org/strain/006293) and used for experiments. J20 mice and their WT littermates (at the age of 1, 3 and 6 months, male and female) were treated with EP or vehicle i.p. once daily for 5 days, and at 6 h after the last treatment, blood was drawn from the mice.
(§4) Plasma concentrations of Aβ were determined by ELISA, which either detects both Aβ40 and Aβ42 [53] or specifically measures each peptide. In the latter case, ELISA kits from Invitrogen (KHB3481 and KHB3441) were used. Plasma concentration of FI was also measured by ELISA using a kit from GenWay Biotech. The commercial kits were used by following the manufacturers’ instructions.

plasma Aβ = test: Plasma Aβ level in J20 mice and WT littermates, ELISA measuring both Aβ40 and Aβ42; format: in vivo; conditions: EP 0.5 mg/kg i.p. once daily 5 days
Experimental: as §3, §4

[4] = tested on: brain astrocyte activation and Aβ accumulation; conditions: APP23 mice; EP ∼2.5 mg/kg, i.p., 3 times weekly for 6 months; cited from earlier work
Excerpt: (§5) By inhibiting the FXII-FVII pathway, anticoagulants present an interesting dichotomy in impacting AD: Inhibiting procoagulant activity, potentially slowing or ameliorating AD, but also inhibiting plasma Aβ degradation, potentially contributing to brain Aβ accumulation. Indeed, increased coagulation is implicated in AD [42], but there is also evidence that peripheral Aβ moves to the brain [43]. The exact effect of anticoagulants on AD remains unclear. Treatment of AD mice (APP23 mice) with EP (∼2.5 mg/kg, i.p., 3 times weekly) for 6 months reduced brain astrocyte activation and Aβ accumulat ...

[5] = tested on: brain amyloid plaque load; conditions: Tg2576 mice; chronic treatment with EP at the same dose regimen (∼2.5 mg/kg, i.p., 3 times weekly); cited from earlier work
Excerpt: as §5

plasma Aβ40 = test: Plasma Aβ40 level in J20 mice and WT littermates, ELISA specific for Aβ40; format: in vivo; conditions: 3 months of age, EP 0.5 mg/kg i.p. once daily 5 days
Experimental: as §3, §4

FXII-FVII pathway [6] = test: FXII-FVII pathway activation in J20 mice and WT littermates, effect of EP (Western blotting, FI by ELISA); format: in vivo; conditions: EP 0.5 mg/kg i.p. once daily 5 days; for effect of EP on coagulation factor activation in J20 mice: blood 6 h after final treatment; for effect of EP on plasma FI level in WT littermates: ELISA
Experimental: as §3, §4, §2

Compound: [H]/N=C(/N)c1ccc(NCc2nc3cc(C(=O)N(CCC(=O)O)c4ccccn4)ccc3n2C)cc1 [DGT, dabigatran]
- increase in plasma level of Aβ42 [1]: up to 21.3 fold

Compound: enoxaparin [EP]
- effect of EP on Aβ40-induced activation of coagulation factors (FXII-FVII pathway [2]): prevents the activation of FX, FII, FVII and FI
- increase in plasma level of exogenously administered Aβ40 ([3]; Aβ40 40 μg/kg i.p. 1 h after last dose, blood 6 h later): 77.4 fold
- elevation of plasma level of endogenous Aβ ([3]; no Aβ40 injected): 1.7 fold
- ratio of EP-induced increase in plasma Aβ level in J20 mice over that in the WT littermates (plasma Aβ42; Aβ42, female): 63.6
- ratio of EP-induced increase in plasma Aβ level in J20 mice over that in the WT littermates (plasma Aβ42; Aβ42, male): 47.3
- increase in plasma level of Aβ42 after EP treatment (plasma Aβ42; J20 mice, female): 4.7 fold
- increase in plasma level of Aβ42 after EP treatment (plasma Aβ42; J20 mice, male): 4.3 fold
- increase in plasma level of Aβ42 after EP treatment (plasma Aβ42; WT littermates, female): 1.6 fold
- increase in plasma level of Aβ42 after EP treatment (plasma Aβ42; WT littermates, male): 1.7 fold
- ratio of EP-induced increase in plasma Aβ level in J20 mice over that in the WT littermates (plasma Aβ; 1 month of age, female): 8.7
- ratio of EP-induced increase in plasma Aβ level in J20 mice over that in the WT littermates (plasma Aβ; 1 month of age, male): 9.3
- ratio of EP-induced increase in plasma Aβ level in J20 mice over that in the WT littermates (plasma Aβ; 3 months of age, female): 56.9
- ratio of EP-induced increase in plasma Aβ level in J20 mice over that in the WT littermates (plasma Aβ; 3 months of age, male): 47.5
- ratio of EP-induced increase in plasma Aβ level in J20 mice over that in the WT littermates (plasma Aβ; 6 months of age, female): 51.2
- ratio of EP-induced increase in plasma Aβ level in J20 mice over that in the WT littermates (plasma Aβ; 6 months of age, male): 40.4
- increase in plasma Aβ concentration after EP treatment (plasma Aβ; J20 mice, 1 month of age, male or female, n = 3): 2.3 fold
- increase in plasma Aβ level after EP treatment (plasma Aβ; J20 mice, 3 months of age, female, n = 3): 4.2 fold
- increase in plasma Aβ level after EP treatment (plasma Aβ; J20 mice, 3 months of age, male, n = 3): 3.7 fold
- increase in plasma Aβ level after EP treatment (plasma Aβ; J20 mice, 6 months of age, female, n = 3): 3.6 fold
- increase in plasma Aβ level after EP treatment (plasma Aβ; J20 mice, 6 months of age, male, n = 3): 3.4 fold
- elevation of plasma Aβ concentration (plasma Aβ; WT littermates, regardless of age or gender, blood 6 h after final treatment, n = 3): approximately 1.6 fold
- increase in plasma level of Aβ42 [1]: up to 73.3 fold
- effect on brain astrocyte activation and Aβ accumulation [4]: reduced brain astrocyte activation and Aβ accumulation
- effect on brain amyloid plaque load [5]: significantly increased brain amyloid plaque load
- ratio of EP-induced increase in plasma Aβ level in J20 mice over that in the WT littermates (plasma Aβ40; Aβ40, female): 40.1
- ratio of EP-induced increase in plasma Aβ level in J20 mice over that in the WT littermates (plasma Aβ40; Aβ40, male): 45.7
- increase in plasma level of Aβ40 after EP treatment (plasma Aβ40; J20 mice, female): 4.3 fold
- increase in plasma level of Aβ40 after EP treatment (plasma Aβ40; J20 mice, male): 3.6 fold
- increase in plasma level of Aβ40 after EP treatment (plasma Aβ40; WT littermates, female): 1.9 fold
- increase in plasma level of Aβ40 after EP treatment (plasma Aβ40; WT littermates, male): 1.6 fold
- effect of EP on coagulation factor activation in J20 mice (FXII-FVII pathway [6]; 1 month of age, male and female): greatly attenuated the activation of FX, FII, FVII and FI
- effect of EP on coagulation factor activation in J20 mice (FXII-FVII pathway [6]; 3 and 6 months of age): strongly inhibited the activation of FX, FII, FVII and FI
- effect of EP on plasma FI level in WT littermates (FXII-FVII pathway [6]; 1 month of age): only slightly elevated FI level
- effect of EP on plasma FI level in WT littermates (FXII-FVII pathway [6]; 3 and 6 months of age): slightly elevate FI level
